Measurements taken from US20230085307A1, “PYRIDAZINONE COMPOUND AND HERBICIDE” (NISSAN CHEMICAL CORPORATION, priority 2019, published 2023).

Key:
oval-leafed pondweed = experiment: Test Example 1: herbicidal activity, application before weed generation under submerged conditions (Table 16, symbol C); format: in vivo, oval-leafed pondweed (Monochoria vaginalis)
Method in brief: (§1)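 Alluvial soil was flooded to 4 cm depth, weed seeds were sown mixed and 2.5-leaf rice seedlings were transplanted. On sowing day, the compound's emulsion, diluted in water to a set dose, was applied to the water surface. Plants grew at 25–30 °C and were scored 0–5 after three weeks.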

persian speedwell = experiment: Test Example 5: herbicidal effect by foliage application, plastic box (Table 20, symbol R); format: in vivo, Persian speedwell (Veronica persica); conditions: foliage application, AAH 320 g/ha, evaluated three weeks after application
Method in brief: (§2)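 Plants were sown into sterilized diluvial soil under about 1.5 cm cover and kept in a greenhouse at 25° C. to 30° C. Fourteen days on, foliage received an even spray of the diluted emulsion. Herbicidal or crop effect was judged three weeks afterwards.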

Italian ryegrass = experiment: Test Example 5: herbicidal effect by foliage application, plastic box (Table 20, symbol K); format: in vivo, Italian ryegrass (Lolium multiflorum); conditions: foliage application, AAH 320 g/ha, evaluated three weeks after application
Method in brief: as §2

velvetleaf [1] = experiment: Test Example 5: herbicidal effect by foliage application, plastic box (Table 20, symbol M); format: in vivo, velvetleaf (Abutilon theophrasti); conditions: foliage application
Method in brief: as §2

blackgrass = experiment: Test Example 5: herbicidal effect by foliage application, plastic box (Table 20, symbol J); format: in vivo, blackgrass (Alopecurus myosuroides); conditions: foliage application, AAH 320 g/ha, evaluated three weeks after application
Method in brief: as §2

Japanese bulrush = experiment: Test Example 1: herbicidal activity, application before weed generation under submerged conditions (Table 16, symbol B); format: in vivo, Japanese bulrush (Schoenoplectus juncoides)
Method in brief: as §1

green foxtail [2] = experiment: Test Example 5: herbicidal effect by foliage application, plastic box (Table 20, symbol G); format: in vivo, green foxtail (Setaria viridis); conditions: foliage application
Method in brief: as §2

late watergrass = experiment: Test Example 1: herbicidal activity, application before weed generation under submerged conditions (Table 16, symbol A); format: in vivo, late watergrass (Echinochloa oryzicola)
Text: [Test Example 1] Herbicidal Activity Test by Application before Weed Generation under Submerged Conditions After alluvial soil was placed into 1/10000 are of Wagner pot, water was poured and mixed to form a submerged condition having a water depth of 4 cm. Seeds of late watergrass, Japanese bulrush, and oval-leafed pondweed were sowed in a mixed manner in the aforementioned pot, and then 2.5 leaf stage rice plant seedlings were transplanted thereto. On the day of sowing seeds, the emulsion agent of the compound of the present invention prepared according to Formulation Example 2 was diluted with water so as to achieve a predetermined herbicide amount, and the diluted emulsion agent was applied to the surface of the water. The pot was placed in a greenhouse at 25° C. to 30° C. for growth of the plants. Three weeks after the herbicide application, the effect of the herbicide on each plant was evaluated according to the following criteria. Evaluation Criteria 5: Herbicidal rate of 90% or more (almost completely withered) 4: Herbicidal rate of 70% or more and less than 90% 3: Herbicidal rate of 40% or more and less than 70% 2: Herbicidal rate of 20% or more and less than 40% 1: Herbicidal rate of 5% or more and less than 20% 0: Herbicidal rate of 5% or less (almost no effect)

redroot pigweed [3] = experiment: Test Example 5: herbicidal effect by foliage application, plastic box (Table 20, symbol N); format: in vivo, redroot pigweed (Amaranthus retroflexus); conditions: foliage application, AAH 320 g/ha, evaluated three weeks after application
Method in brief: as §2

wild oat = experiment: Test Example 5: herbicidal effect by foliage application, plastic box (Table 20, symbol I); format: in vivo, wild oat (Avena fatua); conditions: foliage application, AAH 320 g/ha, evaluated three weeks after application
Method in brief: as §2

southern crabgrass [4] = experiment: Test Example 5: herbicidal effect by foliage application, plastic box (Table 20, symbol F); format: in vivo, southern crabgrass (Digitaria ciliaris); conditions: foliage application
Method in brief: as §2

windgrass = experiment: Test Example 5: herbicidal effect by foliage application, plastic box (Table 20, symbol L); format: in vivo, windgrass (Apera spica-venti); conditions: foliage application, AAH 320 g/ha, evaluated three weeks after application
Method in brief: as §2

lambsquarters [5] = experiment: Test Example 5: herbicidal effect by foliage application, plastic box (Table 20, symbol O); format: in vivo, lambsquarters (Chenopodium album); conditions: foliage application
Method in brief: as §2

barnyard grass [6] = experiment: Test Example 5: herbicidal effect by foliage application, plastic box (Table 20, symbol H); format: in vivo, barnyard grass (Echinochloa crus-galli); conditions: foliage application
Method in brief: as §2

barnyard grass [7] = experiment: Test Example 3: herbicidal effect by foliage application, Wagner pot (Table 18, symbol H); format: in vivo, barnyard grass (Echinochloa crus-galli)
Method in brief: (§3)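 Plants were sown in alluvial soil held under 0.1–0.5 cm standing water and grown 14 days in a greenhouse at 25–30 °C. An emulsifiable formulation, water-diluted to the set dose, was then sprayed onto the foliage, and effects were scored three weeks later using previously defined criteria.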

rice flat sedge = experiment: Test Example 3: herbicidal effect by foliage application, Wagner pot (Table 18, symbol E); format: in vivo, rice flat sedge (Cyperus iria)
Method in brief: as §3

Chinese sprangletop = experiment: Test Example 3: herbicidal effect by foliage application, Wagner pot (Table 18, symbol D); format: in vivo, chinese sprangletop (Leptochloa chinensis)
Method in brief: as §3

barnyard grass [8] = experiment: Test Example 4: herbicidal effect by soil treatment (Table 19, symbol H); format: in vivo, barnyard grass (Echinochloa crus-galli); conditions: amount of applied herbicide 320 g/ha
Method in brief: (§4)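 Pre-emergence style soil spray: seeds under ~1.5 cm sterilized diluvial soil received a uniform coat of emulsion diluted to the predetermined herbicide amount. Greenhouse 25–30° C; readout at week three on previously defined criteria.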

velvetleaf [9] = experiment: Test Example 4: herbicidal effect by soil treatment (Table 19, symbol M); format: in vivo, velvetleaf (Abutilon theophrasti); conditions: amount of applied herbicide 320 g/ha
Method in brief: as §4

green foxtail [10] = experiment: Test Example 4: herbicidal effect by soil treatment (Table 19, symbol G); format: in vivo, green foxtail (Setaria viridis); conditions: amount of applied herbicide 320 g/ha
Method in brief: as §4

lambsquarters [11] = experiment: Test Example 4: herbicidal effect by soil treatment (Table 19, symbol O); format: in vivo, lambsquarters (Chenopodium album); conditions: amount of applied herbicide 320 g/ha
Method in brief: as §4

redroot pigweed [12] = experiment: Test Example 4: herbicidal effect by soil treatment (Table 19, symbol N); format: in vivo, redroot pigweed (Amaranthus retroflexus); conditions: amount of applied herbicide 320 g/ha
Method in brief: as §4

southern crabgrass [13] = experiment: Test Example 4: herbicidal effect by soil treatment (Table 19, symbol F); format: in vivo, southern crabgrass (Digitaria ciliaris); conditions: amount of applied herbicide 320 g/ha
Method in brief: as §4

[14] = AAH 320 g/ha, evaluated three weeks after application
[15] = amount of applied herbicide 246 g/ha
[16] = amount of applied herbicide 370 g/ha
[17] = amount of applied herbicide 320 g/ha
[18] = 320 g/ha, three weeks after application

With `CSCCOc1cccc(-c2sc3ccc(F)cc3c2-c2c(O)c(C)nn(C)c2=O)c1` [2-273] the “Herbicidal effect on C: oval-leafed pondweed (grade 0-5)” value (oval-leafed pondweed; 320 g/ha applied herbicide) was 0 (Herbicidal rate of 5% or less (almost no effect)), the “R: persian speedwell, herbicidal effect (criteria 0-5)” value (persian speedwell) was 4 (Herbicidal rate of 70% or more and less than 90%) and the “K: Italian ryegrass, herbicidal effect (criteria 0-5)” value (Italian ryegrass) was 1 (Herbicidal rate of 5% or more and less than 20%). The “M: velvetleaf, herbicidal effect (criteria 0-5)” value (velvetleaf [1]; [14]) was 0 (Herbicidal rate of 5% or less (almost no effect)), the “J: blackgrass, herbicidal effect (criteria 0-5)” value (blackgrass) was 0 (Herbicidal rate of 5% or less (almost no effect)) and the “Herbicidal effect on B: Japanese bulrush (grade 0-5)” value (Japanese bulrush; 320 g/ha applied herbicide) was 0 (Herbicidal rate of 5% or less (almost no effect)). For the same compound, the “G: green foxtail, herbicidal effect (criteria 0-5)” value (green foxtail [2]; [14]) was 0 (Herbicidal rate of 5% or less (almost no effect)), the “Herbicidal effect on A: late watergrass (grade 0-5)” value (late watergrass; 320 g/ha applied herbicide) was 3 (Herbicidal rate of 40% or more and less than 70%) and the “N: redroot pigweed, herbicidal effect (criteria 0-5)” value (redroot pigweed [3]) was 2 (Herbicidal rate of 20% or more and less than 40%). For the same compound, the “I: wild oat, herbicidal effect (criteria 0-5)” value (wild oat) was 0 (Herbicidal rate of 5% or less (almost no effect)), the “F: southern crabgrass, herbicidal effect (criteria 0-5)” value (southern crabgrass [4]; [14]) was 0 (Herbicidal rate of 5% or less (almost no effect)) and the “L: windgrass, herbicidal effect (criteria 0-5)” value (windgrass) was 0 (Herbicidal rate of 5% or less (almost no effect)). The “O: lambsquarters, herbicidal effect (criteria 0-5)” value (lambsquarters [5]; [14]) was 0 (Herbicidal rate of 5% or less (almost no effect)) and the “H: barnyard grass, herbicidal effect (criteria 0-5)” value (barnyard grass [6]; [14]) was 0 (Herbicidal rate of 5% or less (almost no effect)).

`COc1cc(F)ccc1-c1sc2ccc(SC)cc2c1-c1c(O)c(C)nn(C)c1=O` [2-376] was tested, and the “Herbicidal effect on C: oval-leafed pondweed (grade 0-5)” value (oval-leafed pondweed; 246 g/ha applied herbicide) was 0 (Herbicidal rate of 5% or less (almost no effect)), the “herbicidal effect on H: barnyard grass” value (barnyard grass [7]; [15]) was 5 (Herbicidal rate of 90% or more (almost completely withered)) and the “Herbicidal effect on B: Japanese bulrush (grade 0-5)” value (Japanese bulrush; 246 g/ha applied herbicide) was 0 (Herbicidal rate of 5% or less (almost no effect)). The “Herbicidal effect on A: late watergrass (grade 0-5)” value (late watergrass; 246 g/ha applied herbicide) was 3 (Herbicidal rate of 40% or more and less than 70%), the “herbicidal effect on E: rice flat sedge” value (rice flat sedge; [15]) was 3 (Herbicidal rate of 40% or more and less than 70%) and the “herbicidal effect on D: Chinese sprangletop” value (Chinese sprangletop; [15]) was 3 (Herbicidal rate of 40% or more and less than 70%).

With `CCCC(=O)Oc1c(C)nn(C)c(=O)c1-c1c(-c2ccccc2OCC)sc2cc(OC)c(-c3ccccc3OCC)cc12` [5-080] the “Herbicidal effect, C: oval-leafed pondweed” value (from here on “Herbicidal effect, C”) (oval-leafed pondweed; [16]) was 0 (Herbicidal rate of 5% or less (almost no effect)), the “herbicidal effect on barnyard grass (H)” value (barnyard grass [7]; 370 g/ha) was 3 (Herbicidal rate of 40% or more and less than 70%) and the “Herbicidal effect, B: Japanese bulrush” value (Japanese bulrush; [16]) was 3 (Herbicidal rate of 40% or more and less than 70%). For the same compound, the “Herbicidal effect, A: late watergrass” value (late watergrass; [16]) was 0 (Herbicidal rate of 5% or less (almost no effect)), the “herbicidal effect on rice flat sedge (E)” value (rice flat sedge; 370 g/ha) was 2 (Herbicidal rate of 20% or more and less than 40%) and the “herbicidal effect on Chinese sprangletop (D)” value (“herbicidal effect … (D)” for short) (Chinese sprangletop; 370 g/ha) was 3 (Herbicidal rate of 40% or more and less than 70%).

In the case of `Cc1nn(C)c(=O)c(-c2c(-c3ccc(Cl)cc3)sc3cc(F)c(F)cc23)c1OCc1ccccc1` [5-083], the “Herbicidal effect, C” value (oval-leafed pondweed; [17]) is reported as 0 (Herbicidal rate of 5% or less (almost no effect)), the “herbicidal effect on barnyard grass (H)” value (barnyard grass [7]; 320 g/ha) is reported as 1 (Herbicidal rate of 5% or more and less than 20%) and the “Herbicidal effect, B: Japanese bulrush” value (Japanese bulrush; [17]) is reported as 3 (Herbicidal rate of 40% or more and less than 70%). The “Herbicidal effect, A: late watergrass” value (late watergrass; [17]) was 0 (Herbicidal rate of 5% or less (almost no effect)), the “herbicidal effect on rice flat sedge (E)” value (rice flat sedge; 320 g/ha) was 2 (Herbicidal rate of 20% or more and less than 40%) and the “herbicidal effect … (D)” value (Chinese sprangletop; 320 g/ha) was 0 (Herbicidal rate of 5% or less (almost no effect)).

For `Cc1nn(C)c(=O)c(-c2c(-c3ccc(OC(F)(F)F)cc3)sc3cc(F)c(F)cc23)c1O` [5-105], the “Herbicidal effect, C” value (oval-leafed pondweed; [17]) was 0 (Herbicidal rate of 5% or less (almost no effect)), the “H: barnyard grass, herbicidal effect grade” value (barnyard grass [8]) was 0 (Herbicidal rate of 5% or less (almost no effect)) and the “M: velvetleaf, herbicidal effect grade” value (velvetleaf [9]) was 2 (Herbicidal rate of 20% or more and less than 40%). The “herbicidal effect on barnyard grass (H)” value (barnyard grass [7]; 320 g/ha) was 5 (Herbicidal rate of 90% or more (almost completely withered)), the “G: green foxtail, herbicidal effect grade” value (green foxtail [10]) was 0 (Herbicidal rate of 5% or less (almost no effect)) and the “herbicidal effect on velvetleaf (M)” value (velvetleaf [1]; [18]) was 4 (Herbicidal rate of 70% or more and less than 90%). For the same compound, the “Herbicidal effect, B: Japanese bulrush” value (Japanese bulrush; [17]) was 0 (Herbicidal rate of 5% or less (almost no effect)), the “O: lambsquarters, herbicidal effect grade” value (lambsquarters [11]) was 4 (Herbicidal rate of 70% or more and less than 90%) and the “herbicidal effect on green foxtail (G)” value (green foxtail [2]; [18]) was 5 (Herbicidal rate of 90% or more (almost completely withered)). The “Herbicidal effect, A: late watergrass” value (late watergrass; [17]) was 2 (Herbicidal rate of 20% or more and less than 40%), the “N: redroot pigweed, herbicidal effect grade” value (redroot pigweed [12]) was 3 (Herbicidal rate of 40% or more and less than 70%) and the “F: southern crabgrass, herbicidal effect grade” value (southern crabgrass [13]) was 0 (Herbicidal rate of 5% or less (almost no effect)). The “herbicidal effect on southern crabgrass (F)” value (southern crabgrass [4]; [18]) was 4 (Herbicidal rate of 70% or more and less than 90%), the “herbicidal effect on rice flat sedge (E)” value (rice flat sedge; 320 g/ha) was 0 (Herbicidal rate of 5% or less (almost no effect)) and the “herbicidal effect on lambsquarters (O)” value (lambsquarters [5]; [18]) was 5 (Herbicidal rate of 90% or more (almost completely withered)). The “herbicidal effect on barnyard grass (H)” value (barnyard grass [6]; [18]) was 5 (Herbicidal rate of 90% or more (almost completely withered)) and the “herbicidal effect … (D)” value (Chinese sprangletop; 320 g/ha) was 0 (Herbicidal rate of 5% or less (almost no effect)).
